From patent US20150141433A1, “N-ARYLMETHYL SULFONAMIDE NEGATIVE MODULATORS OF NR2A” (Mnemosyne Pharmaceuticals, Inc., priority 2013, published 2015)

Biological target: T1, NR1/NR2A (Homo sapiens, UniProt Q05586+Q12879)
T1 construct: host or cells: HEK293 (tetracycline-inducible NR2A expression)
Assay: FDSS Ca2+ influx inhibition assay in HEK293 cells expressing NR1/NR2A
Type: cell-based
Details: 3 μM glutamate, 3 μM glycine, 1 mM Ca2+, Ca2+ influx inhibition relative to MK801, read-out: NR2A IC50
Procedure: Cell Culture and plating: HEK293 cells expressing NR1/NR2A (Chantest, Cleveland, Ohio) were grown to 70-80% confluency as an adherent monolayer in standard tissue culture flasks at 37° C., 5% CO2 per supplier's instructions.
After induction, cell culture medium was removed and cells were rinsed once with Ca^2+ and Mg^2+-free Dulbecco's phosphate buffered saline. Cells were then removed from the flask using TrypLE™ Express (Life Technologies) according to the manufacturer's instructions and collected to 50 ml centrifuge tubes. Following two washes in Ca^27 Mg^2′-free HBSS with 20 mM HEPES (HHnoCa), cells were counted and viability assessed using trypan blue. To load cells with Ca^2′-sensitive dye, they were resuspended in fluo-8 plus Component B (AAT Bioquest Products) diluted in HHnoCa and incubated 15 minutes at 37° C., followed by 30 minutes at room temp (in dark). Cells were then washed and resuspended in HHnoCa to remove extracellular dye and plated in 384-well plates (Falcon, uncoated) at 20,000-30,000 cells/well in a final volume of 25 μL/well.
FDSS Assay: To each well of the plate, 10 μLtest compound, control (MK801) or HHnoCa buffer was added to a final concentration of 10 μM with a final concentration of DMSO of 0.1%. Following 10 minutes pre-incubation in the dark, plates are loaded onto the Hamamatsu FDSS 6000. After collecting baseline fluorescence images, 3 μM glutamate, 3 μM glycine, and 1 mM Ca^2+ in HHnoCa buffer is added to each well, and Ca^2+ is recorded for 3 minutes. Data were processed by computing ratio of fluorescence at the end of data collection to baseline fluorescence to assess degree of Ca^2+ influx inhibition relative to that observed in MK801.

T1 sequence (Q12879 23-1464, other chains not shown): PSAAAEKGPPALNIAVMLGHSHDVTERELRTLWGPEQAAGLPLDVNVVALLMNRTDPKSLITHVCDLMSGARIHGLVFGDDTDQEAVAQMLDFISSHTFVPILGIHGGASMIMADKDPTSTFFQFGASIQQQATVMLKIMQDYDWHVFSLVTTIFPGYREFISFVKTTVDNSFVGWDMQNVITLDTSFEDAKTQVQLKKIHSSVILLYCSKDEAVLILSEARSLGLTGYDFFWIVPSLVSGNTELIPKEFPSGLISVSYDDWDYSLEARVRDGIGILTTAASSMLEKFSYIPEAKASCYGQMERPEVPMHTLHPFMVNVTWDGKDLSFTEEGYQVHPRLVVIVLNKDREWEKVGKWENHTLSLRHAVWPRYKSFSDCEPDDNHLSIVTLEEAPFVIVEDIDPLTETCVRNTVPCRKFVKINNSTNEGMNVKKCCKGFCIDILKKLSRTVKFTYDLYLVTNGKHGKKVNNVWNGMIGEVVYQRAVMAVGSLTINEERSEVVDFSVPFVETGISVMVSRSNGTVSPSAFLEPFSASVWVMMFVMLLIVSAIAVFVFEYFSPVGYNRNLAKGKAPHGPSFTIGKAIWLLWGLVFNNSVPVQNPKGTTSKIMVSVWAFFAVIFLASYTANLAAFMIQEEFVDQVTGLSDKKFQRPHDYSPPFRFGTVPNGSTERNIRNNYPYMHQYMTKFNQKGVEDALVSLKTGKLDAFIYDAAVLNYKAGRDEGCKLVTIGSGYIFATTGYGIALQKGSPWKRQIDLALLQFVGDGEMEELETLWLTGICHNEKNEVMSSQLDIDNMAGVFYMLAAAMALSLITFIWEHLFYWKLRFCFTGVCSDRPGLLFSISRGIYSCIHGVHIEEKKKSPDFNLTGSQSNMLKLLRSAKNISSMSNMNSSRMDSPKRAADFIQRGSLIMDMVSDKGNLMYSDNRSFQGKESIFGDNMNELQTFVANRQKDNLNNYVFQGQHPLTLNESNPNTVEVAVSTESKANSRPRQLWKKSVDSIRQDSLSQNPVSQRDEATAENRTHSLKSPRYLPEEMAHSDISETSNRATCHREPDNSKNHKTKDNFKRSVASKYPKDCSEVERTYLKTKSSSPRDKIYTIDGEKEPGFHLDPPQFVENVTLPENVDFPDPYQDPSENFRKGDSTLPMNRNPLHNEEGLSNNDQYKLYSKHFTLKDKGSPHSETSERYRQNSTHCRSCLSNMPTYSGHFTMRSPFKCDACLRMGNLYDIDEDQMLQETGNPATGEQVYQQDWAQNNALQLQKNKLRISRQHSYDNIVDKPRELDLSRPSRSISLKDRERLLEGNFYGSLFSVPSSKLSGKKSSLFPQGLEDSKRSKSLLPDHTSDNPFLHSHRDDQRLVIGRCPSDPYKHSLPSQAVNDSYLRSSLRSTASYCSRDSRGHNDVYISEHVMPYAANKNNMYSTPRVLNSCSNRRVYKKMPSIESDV

| SMILES | IC50 |
| --- | --- |
| Cc1ncc(CNC(=O)c2cnc(CNS(=O)(=O)c3ccc(Cl)c(Cl)c3)c(C)n2)s1 [5-(3,4-dichlorobenzenesulfon-amidomethyl)-6-methyl-N-[(2-methyl-1,3-thiazol-5-yl)methyl]pyrazine-2-carboxamide] | 494 nM |
| Cc1ncc(CNC(=O)c2ccc(CNS(=O)(=O)c3ccc(Cl)c(Cl)c3)cn2)s1 [5-(3,4-dichlorobenzenesulfon-amidomethyl)-N-[(2-methyl-1,3-thiazol-5-yl)methyl]pyridine-2-carboxamide] | 6680 nM |
| Cc1ncc(CNC(=O)c2cnc(CNS(=O)(=O)c3ccc(F)c(F)c3)cn2)s1 [5-(3,4-difluorobenzenesulfon-amidomethyl)-N-[(2-methyl-1,3-thiazol-5-yl)methyl]pyrazine-2-carboxamide] | 313 nM |
| Cc1ncc(CNC(=O)c2ccc(CNS(=O)(=O)c3ccc(F)c(F)c3)cn2)s1 [5-(3,4-difluorobenzenesulfon-amidomethyl)-N-[(2-methyl-1,3-thiazol-5-yl)methyl]pyridine-2-carboxamide] | 219 nM |
| Cc1ncc(CNC(=O)c2cnc(CNS(=O)(=O)c3cc(F)cc(F)c3)c(C)n2)s1 [5-(3,5-difluorobenzenesulfon-amidomethyl)-6-methyl-N-[(2-methyl-1,3-thiazol-5-yl)methyl]pyrazine-2-carboxamide] | 366 nM |
| CCc1nc(C(=O)NCc2cnc(C)s2)cnc1CNS(=O)(=O)c1ccc(F)c(Cl)c1 [5-(3-chloro-4-fluorobenzenesulfon-amidomethyl)-6-ethyl-N-[(2-methyl-1,3-thiazol-5-yl)methyl]pyrazine-2-carboxamide] | 87.8 nM |
| Cc1ncc(CNC(=O)c2cnc(CNS(=O)(=O)c3ccc(F)c(Cl)c3)c(C)n2)s1 [5-(3-chloro-4-fluorobenzenesulfon-amidomethyl)-6-methyl-N-[(2-methyl-1,3-thiazol-5-yl)methyl]pyrazine-2-carboxamide] | 19.6 nM |
| O=C(NCc1ccno1)c1ccc(CNS(=O)(=O)c2ccc(F)c(Cl)c2)cn1 [5-(3-chloro-4-fluorobenzenesulfon-amidomethyl)-N-(1,2-oxazol-5-ylmethyl)pyridine-2-carboxamide] | 2180 nM |
| O=C(NCc1cnco1)c1ccc(CNS(=O)(=O)c2ccc(F)c(Cl)c2)cn1 [5-(3-chloro-4-fluorobenzenesulfon-amidomethyl)-N-(1,3-oxazol-5-ylmethyl)pyridine-2-carboxamide] | 1950 nM |
| O=C(NCc1nccs1)c1ccc(CNS(=O)(=O)c2ccc(F)c(Cl)c2)cn1 [5-(3-chloro-4-fluorobenzenesulfon-amidomethyl)-N-(1,3-thiazol-2-ylmethyl)pyridine-2-carboxamide] | 9130 nM |
| O=C(NCc1cncs1)c1cnc(CNS(=O)(=O)c2ccc(F)c(Cl)c2)cn1 [5-(3-chloro-4-fluorobenzenesulfon-amidomethyl)-N-(1,3-thiazol-5-ylmethyl)pyrazine-2-carboxamide] | 929 nM |
| O=C(NCc1cncs1)c1ccc(CNS(=O)(=O)c2ccc(F)c(Cl)c2)cn1 [5-(3-chloro-4-fluorobenzenesulfon-amidomethyl)-N-(1,3-thiazol-5-ylmethyl)pyridine-2-carboxamide] | 347 nM |
| O=C(NCc1cnccn1)c1cnc(CNS(=O)(=O)c2ccc(F)c(Cl)c2)cn1 [5-(3-chloro-4-fluorobenzenesulfon-amidomethyl)-N-(pyrazin-2-ylmethyl)pyrazine-2-carboxamide] | 2100 nM |
| O=C(NCc1cnccn1)c1ccc(CNS(=O)(=O)c2ccc(F)c(Cl)c2)cn1 [5-(3-chloro-4-fluorobenzenesulfon-amidomethyl)-N-(pyrazin-2-ylmethyl)pyridine-2-carboxamide] | 1690 nM |

Further lines, results first:

| IC50 | SMILES |
| --- | --- |
| 439 nM | O=C(NCc1cccnc1)c1cnc(CNS(=O)(=O)c2ccc(F)c(Cl)c2)cn1 [5-(3-chloro-4-fluorobenzenesulfon-amidomethyl)-N-(pyridin-3-ylmethyl)pyrazine-2-carboxamide] |
| 758 nM | O=C(NCc1cccnc1)c1ccc(CNS(=O)(=O)c2ccc(F)c(Cl)c2)cn1 [5-(3-chloro-4-fluorobenzenesulfon-amidomethyl)-N-(pyridin-3-ylmethyl)pyridine-2-carboxamide] |
| 1700 nM | O=C(NCc1ccncc1)c1cnc(CNS(=O)(=O)c2ccc(F)c(Cl)c2)cn1 [5-(3-chloro-4-fluorobenzenesulfon-amidomethyl)-N-(pyridin-4-ylmethyl)pyrazine-2-carboxamide] |
| 4840 nM | O=C(NCc1cncnc1)c1cnc(CNS(=O)(=O)c2ccc(F)c(Cl)c2)cn1 [5-(3-chloro-4-fluorobenzenesulfon-amidomethyl)-N-(pyrimidin-5-ylmethyl)pyrazine-2-carboxamide] |
| 7390 nM | O=C(NCc1cncnc1)c1ccc(CNS(=O)(=O)c2ccc(F)c(Cl)c2)cn1 [5-(3-chloro-4-fluorobenzenesulfon-amidomethyl)-N-(pyrimidin-5-ylmethyl)pyridine-2-carboxamide] |
| 180 nM | Cc1ncc(C(C)NC(=O)c2cnc(CNS(=O)(=O)c3ccc(F)c(Cl)c3)cn2)s1 (centres unmarked) [5-(3-chloro-4-fluorobenzenesulfon-amidomethyl)-N-[1-(2-methyl-1,3-thiazol-5-yl)ethyl]pyrazine-2-carboxamide] |
| 5510 nM | CC(NC(=O)c1ccc(CNS(=O)(=O)c2ccc(F)c(Cl)c2)cn1)c1ccco1 (centres unmarked) [5-(3-chloro-4-fluorobenzenesulfon-amidomethyl)-N-[1-(furan-2-yl)ethyl]pyridine-2-carboxamide] |
| 2400 nM | CC(NC(=O)c1ccc(CNS(=O)(=O)c2ccc(F)c(Cl)c2)cn1)c1cccs1 (centres unmarked) [5-(3-chloro-4-fluorobenzenesulfon-amidomethyl)-N-[1-(thiophen-2-yl)ethyl]pyridine-2-carboxamide] |
| 757 nM | Cc1ccc(CNC(=O)c2cnc(CNS(=O)(=O)c3ccc(F)c(Cl)c3)cn2)n1C [5-(3-chloro-4-fluorobenzenesulfon-amidomethyl)-N-[(1,5-dimethyl-1H-pyrrol-2-yl)methyl]pyrazine-2-carboxamide] |
| 8950 nM | Cn1cncc1CNC(=O)c1cnc(CNS(=O)(=O)c2ccc(F)c(Cl)c2)cn1 [5-(3-chloro-4-fluorobenzenesulfon-amidomethyl)-N-[(1-methyl-1H-imidazol-5-yl)methyl]pyrazine-2-carboxamide] |
| 8360 nM | Cn1cncc1CNC(=O)c1ccc(CNS(=O)(=O)c2ccc(F)c(Cl)c2)cn1 [5-(3-chloro-4-fluorobenzenesulfon-amidomethyl)-N-[(1-methyl-1H-imidazol-5-yl)methyl]pyridine-2-carboxamide] |
| 4590 nM | Cn1cc(CNC(=O)c2ccc(CNS(=O)(=O)c3ccc(F)c(Cl)c3)cn2)cn1 [5-(3-chloro-4-fluorobenzenesulfon-amidomethyl)-N-[(1-methyl-1H-pyrazol-4-yl)methyl]pyridine-2-carboxamide] |
| 3090 nM | Cn1cccc1CNC(=O)c1cnc(CNS(=O)(=O)c2ccc(F)c(Cl)c2)cn1 [5-(3-chloro-4-fluorobenzenesulfon-amidomethyl)-N-[(1-methyl-1H-pyrrol-2-yl)methyl]pyrazine-2-carboxamide] |
| 2550 nM | Cn1cccc1CNC(=O)c1ccc(CNS(=O)(=O)c2ccc(F)c(Cl)c2)cn1 [5-(3-chloro-4-fluorobenzenesulfon-amidomethyl)-N-[(1-methyl-1H-pyrrol-2-yl)methyl]pyridine-2-carboxamide] |
| 10500 nM | C[C@@H](NC(=O)c1cnc(CNS(=O)(=O)c2ccc(F)c(Cl)c2)cn1)c1cncs1 [5-(3-chloro-4-fluorobenzenesulfon-amidomethyl)-N-[(1R)-1-(1,3-thiazol-5-yl)ethyl]pyrazine-2-carboxamide] |
| 850 nM | COc1cc(CNC(=O)c2cnc(CNS(=O)(=O)c3ccc(F)c(Cl)c3)cn2)ccn1 [5-(3-chloro-4-fluorobenzenesulfon-amidomethyl)-N-[(2-methoxypyridin-4-yl)methyl]pyrazine-2-carboxamide] |
| 3020 nM | COc1cc(CNC(=O)c2ccc(CNS(=O)(=O)c3ccc(F)c(Cl)c3)cn2)ccn1 [5-(3-chloro-4-fluorobenzenesulfon-amidomethyl)-N-[(2-methoxypyridin-4-yl)methyl]pyridine-2-carboxamide] |
| 169 nM | Cc1ncc(CNC(=O)c2cnc(CNS(=O)(=O)c3ccc(F)c(Cl)c3)c(C(F)(F)F)n2)s1 [5-(3-chloro-4-fluorobenzenesulfon-amidomethyl)-N-[(2-methyl-1,3-thiazol-5-yl)methyl]-6-(trifluoromethyl)pyrazine-2-carboxamide] |
| 204 nM | Cc1ncc(CNC(=O)c2ccc(CNS(=O)(=O)c3ccc(F)c(Cl)c3)cn2)s1 [5-(3-chloro-4-fluorobenzenesulfon-amidomethyl)-N-[(2-methyl-1,3-thiazol-5-yl)methyl]pyridine-2-carboxamide] |
| 3370 nM | COc1cccc(CNC(=O)c2ccc(CNS(=O)(=O)c3ccc(F)c(Cl)c3)cn2)c1 [5-(3-chloro-4-fluorobenzenesulfon-amidomethyl)-N-[(3-methoxyphenyl)methyl] pyridine-2-carboxamide] |

Same assay, conditions: binned NR2A inhibition concentration, read-out: Binned Activity

| SMILES | IC50 |
| --- | --- |
| Cc1ncc(CNC(=O)c2ccc(CNS(=O)(=O)c3c(C)noc3C)cn2)s1 | > 10000 nM |
